Among the test systems are HT29 colon; UACC-257 melanoma; SNB-75 CNS; CAKI-1 renal; A549 NSCLC; MALME-3M melanoma; NCI-H460 lung; SF-295 CNS; COLO 205 colon; EKVX NSCLC.
What all share (experiment): NCI-60 cell line screen, 48 h

Experimental findings from PubChem BioAssay (NCI) are described below.

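Dose response: 5 concentrations. Exposure: 48 h. Format: 96-well plates. Endpoint: linear interpolation; highest concentration if not reached. GI50 is the concentration that inhibits growth by half. TGI: concentration producing complete growth inhibition.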

On to `O=C1CCCC[C@H]1C(O)CC1CC(=O)N(c2ccccc2)C(=O)C1` (some centres undefined), for which the TGI with HT29 colon, with UACC-257 melanoma, in the assay on SNB-75 CNS, with CAKI-1 renal, in the assay on A549 NSCLC and with MALME-3M melanoma was over 100 µM in each case. The TGI with NCI-H460 lung and in the assay with SF-295 CNS was over 100 µM in each case.
On to `CC[C@H]1C=CCC[C@@]2(C[C@@H]3CC[C@@H]4[C@H](C(=O)OCCCCCCCCCCCCCCCC(=O)N(CCCNC(C)=O)C[C@H](CCNC(C)=O)OC(C)=O)[C@]5(CCC[C@@H](C)O5)NC(=[N+]34)N2)O1`, for which the TGI with COLO 205 colon is 0.955 µM; with HT29 colon it was 0.998 µM; with UACC-257 melanoma, 0.291 µM; with CAKI-1 renal, 1.86 µM; in the assay with A549 NSCLC it was 1.36 µM; with MALME-3M melanoma, 0.568 µM. The TGI with EKVX NSCLC came out at 1.89 µM; in the assay with NCI-H460 lung, 1.14 µM; with SF-295 CNS, 1.46 µM.
In the case of `O=C1CCCC2=C1CC1=C(CCCC1=O)N2c1cccc([N+](=O)[O-])c1`, the TGI with HT29 colon, in the assay with SNB-75 CNS, in the assay with CAKI-1 renal, in the assay on A549 NSCLC, in the assay on EKVX NSCLC and with NCI-H460 lung was over 100 µM throughout.
For the molecule `COc1ccc(-c2nc3cc(C(F)(F)F)ccc3n2CC2CCCN3CCCCC23)cc1` (centres undefined), the TGI in the assay on HT29 colon stood at 26.1 µM; in the assay on UACC-257 melanoma, 26.7 µM; in the assay on SNB-75 CNS, 28.8 µM; with CAKI-1 renal, 59.6 µM; in the assay on EKVX NSCLC, 24.5 µM; with NCI-H460 lung, 29.2 µM. The TGI with SF-295 CNS worked out at 36.6 µM.
In the case of `CCc1c(C)c2ccc(OCC(=O)N=Nc3c(O)[nH]c4ccccc34)c(C)c2oc1=O`, the GI50 with CAKI-1 renal, in the assay with A549 NSCLC and with EKVX NSCLC was over 33.3 µM in each case. Besides, the TGI with CAKI-1 renal, with A549 NSCLC and with EKVX NSCLC was over 33.3 µM in each case.
Consider `CCOC(=O)C1=C(C)NC(C)=C(C(=O)OCC)C1c1ccc(C)cc1`, for which the TGI in the assay on HT29 colon, in the assay on UACC-257 melanoma, in the assay on SNB-75 CNS, in the assay with CAKI-1 renal, in the assay with A549 NSCLC and in the assay with EKVX NSCLC was over 100 µM in each case. For the same molecule, the TGI in the assay with NCI-H460 lung is 48 µM; with SF-295 CNS, over 100 µM.
As for `NC(=O)SCC(=O)Nc1ccc2ncccc2c1`, the TGI in the assay on COLO 205 colon, with HT29 colon, in the assay on UACC-257 melanoma, in the assay on CAKI-1 renal, in the assay on A549 NSCLC and in the assay on MALME-3M melanoma was over 100 µM in each case. For the same molecule, the TGI with EKVX NSCLC, in the assay with NCI-H460 lung and in the assay on SF-295 CNS was over 100 µM in each case.
As to `Cc1ccc(NC(=O)/C(=N\NC(N)=O)c2c(O)c3ccccc3[nH]c2=O)cc1`, the TGI in the assay on COLO 205 colon, with HT29 colon, in the assay on UACC-257 melanoma, in the assay on SNB-75 CNS, with CAKI-1 renal and in the assay with A549 NSCLC was over 100 µM each time. Further, the TGI with NCI-H460 lung and in the assay with SF-295 CNS was over 100 µM throughout.
Consider `O=P1(Oc2ccccc2)NCc2ncccc2O1` (centres undefined), for which the TGI with COLO 205 colon, in the assay on HT29 colon, in the assay with UACC-257 melanoma, in the assay with SNB-75 CNS, with CAKI-1 renal and with A549 NSCLC was over 100 µM in each case. Also, the TGI in the assay with EKVX NSCLC, in the assay on NCI-H460 lung and in the assay on SF-295 CNS was over 100 µM in each case.
Regarding `O=S(=O)(/N=C(\NO)Nc1ccc(Cl)cc1)C1CC=C(c2ccon2)S1` (centres undefined), the TGI in the assay with COLO 205 colon was 35 µM; with HT29 colon, over 100 µM; with UACC-257 melanoma, over 100 µM; in the assay on CAKI-1 renal it was over 100 µM; in the assay on A549 NSCLC, over 100 µM; in the assay with MALME-3M melanoma, 43.2 µM. Further, the TGI with EKVX NSCLC is over 100 µM; in the assay on NCI-H460 lung it was over 65.8 µM; with SF-295 CNS, over 100 µM.
Consider `CC(=O)OC1[C@H](n2ccnc2)C[C@H]2[C@@H]3CC=C4CC(N5CCCC5)CC[C@]4(C)[C@H]3CC[C@]12C` (some centres undefined), for which the TGI in the assay with COLO 205 colon was over 100 µM; in the assay on HT29 colon it was over 100 µM; in the assay on UACC-257 melanoma it was 55.3 µM; in the assay with SNB-75 CNS, over 100 µM; in the assay with CAKI-1 renal it was over 100 µM; in the assay on A549 NSCLC, over 100 µM. Moreover, the TGI is over 100 µM with EKVX NSCLC, over 100 µM with NCI-H460 lung and 41 µM with SF-295 CNS.
As for `Brc1ccc(-c2cc(-c3ccc4c(c3)OCO4)c(-c3cccs3)n2Cc2ccccc2)cc1`, the TGI in the assay with COLO 205 colon, in the assay with HT29 colon, in the assay with UACC-257 melanoma, with SNB-75 CNS, in the assay on CAKI-1 renal and in the assay on A549 NSCLC was over 100 µM each time. Moreover, the TGI with EKVX NSCLC, with NCI-H460 lung and in the assay on SF-295 CNS was over 100 µM each time.
As for `O=C1C2CC=CCC2C(=O)N1n1c(Cc2ccccc2)n[nH]c1=O` (centres undefined), the TGI with COLO 205 colon, in the assay on HT29 colon, with UACC-257 melanoma, with CAKI-1 renal, in the assay on A549 NSCLC and in the assay on MALME-3M melanoma was over 100 µM each time. The TGI in the assay on EKVX NSCLC, in the assay on NCI-H460 lung and in the assay with SF-295 CNS was over 100 µM in each case.
Turning to `CC(C)(O)CCc1ccc(O)c2c(=O)c3c(O)c4c(cc3oc12)O[C@H]1OC=C[C@@]41O`, the TGI was 0.378 µM in the assay with COLO 205 colon; over 100 µM in the assay with HT29 colon; 0.291 µM with UACC-257 melanoma; 10.1 µM with SNB-75 CNS; under 0.0318 µM in the assay with CAKI-1 renal; over 100 µM with A549 NSCLC. Also, the TGI in the assay with EKVX NSCLC is over 61.2 µM; in the assay with NCI-H460 lung it was 20.7 µM; in the assay with SF-295 CNS, 25.3 µM.
Turning to `C/C(=C1\C(=O)C(c2ccccc2)N(c2ccccc2)C1=O)c1ccc(Cl)cc1` (centres undefined), the TGI in the assay with COLO 205 colon came out at 32.8 µM; in the assay with HT29 colon, 31.2 µM; in the assay on UACC-257 melanoma it was 30.8 µM; with CAKI-1 renal, 48.4 µM; with A549 NSCLC, 36.5 µM; in the assay on MALME-3M melanoma, 37.4 µM. For the same molecule, the TGI in the assay on EKVX NSCLC is 79.6 µM; in the assay on NCI-H460 lung, over 100 µM; with SF-295 CNS, 74.9 µM.
